The results in this text go back to patent publication US20220220480A1, “METHODS AND COMPOSITIONS FOR TREATMENT OF NLRP3 IN[…] IL-1BETA DEPENDENT DISORDERS” (priority 2019, published 2022).

Test [1] is described as follows: Imiquimod induced psoriasis-like phenotype, adapted PASI score. It counts as in vivo, C57BL/6J mice. The note with it: day 4 of imiquimod administration, AZ13711265 10 mg/kg intraperitoneally daily; for Erythema score (PASI) / Scaling score (PASI): scale 0-4. On the procedure: FIG. 5: 8 weeks old C57BL/6J mice were shaved two days before the experiment. One day before administration of imiquimod and daily for 5 days, mice were intraperitoneally injected with vehicle (60% PEG, 40% PBS) or with the Pak1 inhibitor AZ13711265 (10 mg/kg). Mice were treated in the back daily for 4 days either with Vaseline or with Aldara cream corresponding to 3,125 mg of imiquimod (IMQ) to induce psoriasis-like phenotype. The erythema and scaling was analyzed by an adapted version of the clinical PASI score, 0: none; 1: slight; 2: moderated; 3: strong; 4: very strong phenotype. The total score is the cumulative score of scaling and erythema. Results are expressed as mean±SEM. p-value: *<0.01, ***<0.001, compared to control
Futhermore, we investigated the effect of Pak1 kinase inhibitor on a psoriasis model. Dermal application of imiquimod induced a psoriasis-like phenotype including scaling and erythema that are scored using the PASI score.

A further test has as its system Caspase-1 activation. Nature of the test: FAM-FLICA Caspase-1 activation assay by microscopy in BMDMs. It counts as cell-based, mouse. The note with it: for Block of CNF1-triggered Caspase-1 activity/activation measured using FAM-FLICA: BMDMs, inhibitor 45 min before CNF1 500 ng/mL, 1 μM MCC950, 5 μM IPA-3, 1 μM FRAX597 (FIG. 1b, 2d).
Another test concerns E. coli expressing CNF1. Briefly: Mouse model of bacteremia with E. coli expressing CNF1. It counts as in vivo. The note with it: BALB/c mice, 48 h after infection.
The next test relates to IL-1β maturation. Nature of the test: IL-1β maturation by immunoblot in BMDMs treated with LPS and CNF1. It counts as cell-based, mouse. The note with it: 5 μM IPA-3 or 1 μM FRAX597 45 min before CNF1 500 ng/mL and LPS 100 ng/mL 8 h (FIG. 2c). On the procedure:
(a-b) BMDMs isolated from BALB/c mice were transfected for 72 h with siRNA targeting either NLRP3, Nek7, Pak1, Pak2 as indicated and non-targeting siRNA were used as control. […] (c) Supernatants and cell lysates were analyzed by immunoblot. […] Active Caspase 1 was stained with FAM-FLICA, analyzed by microscopy and FAM-FLICA positive cells were counted. (n=1000 per conditions). p-value ****<0.0001, compared to the CNF1-treated BMDMs (e) HEK293T cells were transfected with plasmids encoding NLRP3 inflammasome component (myc-NLRP3, ASC-GFP, mCaspase-1) together with Flag-Rac2Q61E (Q61E), myc-Pak1 wild type (WT) or myc-Pak1T423E (T423E) and caspase-1 cleavage was analyzed by immunoblot.
HEK 293T cells were obtained from ATCC (CRL-3216) and maintained according to ATCC instructions. Bone-marrow derived macrophages (BMDMs) were extracted from femurs of 6-10 weeks-old BALB/c, C57BL/6J or C57BL/6J KO mice as indicated in the figure legends and were cultured in RPMI GlutaMax medium (Life Technologies) supplemented with 100 ng/mL M-CSF (Premium grade, Miltenyi Biotec), 10% heat-inactivated FBS (Biowest) and 50 μg/mL gentamycin (Life Technologies) at 37° C. in an atmosphere containing 5% CO2. The cells were seeded at a concentration of 10^6 cells per well in a 6-well plate. After 6 days of differentiation, BMDMs were used for experiments. […]

Procedure for Caspase-1 activation: Bone-marrow derived macrophages (BMDMs) were extracted from femurs of 6-10 weeks-old BALB/c, C57BL/6J or C57BL/6J KO mice as indicated in the figure legends and were cultured in RPMI GlutaMax medium (Life Technologies) supplemented with 100 ng/mL M-CSF (Premium grade, Miltenyi Biotec), 10% heat-inactivated FBS (Biowest) and 50 μg/mL gentamycin (Life Technologies) at 37° C. in an atmosphere containing 5% CO2. The cells were seeded at a concentration of 10^6 cells per well in a 6-well plate. After 6 days of differentiation, BMDMs were used for experiments. NLRP3, NLRC4, PYRIN, and GSDMD knock-out BMDMs were a kind gift from M. Lamkanfi. […] SiRNAs were transfected in HEK 293T cells or BMDMs during 72 h using Lipofectamine RNAiMAX Reagent (ThermoFisher Scientific) according to the manufacturer instructions. Cells were transfected as indicated in figure legends with siRNAs targeting NLRP3 (L-053455-00, Dharmacon), Rac1 (L-041170-00, Dharmacon), Rac2 (L-041171-01, Dharmacon), Nek7 (J-063266-09, Dharmacon), PAK1 (L-048101-00, Dharmacon), PAK2 (L-040615-00, Dharmacon) or non-targeting control siRNA (D-001810-10, Dharmacon). […] Cells pre-treated with ultrapure LPS for 6 h followed by the addition of Nigericin 504 (Invivogen) or ATP 5 mM (Invivogen) for 30 minutes were used as positive control of NLRP3 inflammasome activation.
Caspase 1 activation was detected using the fluorescent probe FAM-FLICA (ImmunoChemistry Technologies) after 6 h of treatment, according to the manufacturer instructions. After labelling, cells were fixed in 4% paraformaldehyde for 15 min and blocked with 2% TBS-BSA. Cells were incubated with mouse anti-NLRP3 antibody (clone Cryo-2, Adipogen) for 1 hour followed by incubation with secondary antibody TexasRed anti-mouse IgG (TI-2000, Vector Laboratories) and Hoechst (Thermo Fisher Scientific) for 30 minutes. Cells were imaged using Nikon MR confocal microscope. […]
Primary bone marrow derived macrophages (BMDMs) were treated with CNF1 for 6 hours to trigger Caspase-1 activation. […] Cells with dots of FAM-FLICA staining were determined as positive (data not shown). […] To this aim, BMDMs were transfected with a siRNA library targeting mouse NLRs and Caspase-1 activation was monitored as previously described. […]
Procedure for E. coli expressing CNF1: Data are expressed as the geometric mean±95 CI *p<0.05.
Mice were injected intravenously with 10^7 CFUs of E. coli as previously described^8. For the determination of bacteremia, blood was collected from the tail vein at the indicated times post-infection, serially diluted in sterile PBS and plated on LB plates containing streptomycin (200 μg/ml) and the plates were incubated for 16 h at 37° C. Injection quality was controlled by plating blood samples obtained from the mice at 5 min after injection. NLRP3 knock-out mice were kindly provided by V. Petrilli and have been previously described^21. Female NLRP3 KO and female congenic WT C57BL/6J littermate mice were injected intravenously with 10^7 CFUs of E. coli and the determination of bacteremia was monitored as previously described^8.
Mice were infected with the same strain and concentration of CNF1 expressing E. coli and the bacteremia was measured on each infected mouse at 0 h, 4 h, 24 h and 48 h.

As to `CC(C)Cn1cnc2c(N)nc3ccccc3c21` [imiquimod], in test [1], the “Total PASI score (cumulative score of scaling and erythema)” value is given as 6.5; the “Erythema score (PASI)” value worked out at 3; the “Scaling score (PASI)” value is on record as 3.5.
As for `CC(C)(O)c1coc(S(=O)(=O)NC(=O)Nc2c3c(cc4c2CCC4)CCC3)c1` [MCC950], the “Block of CNF1-triggered Caspase-1 activity/activation measured using FAM-FLICA” value with Caspase-1 activation is reported as “sufficient to block”. For the same molecule, the “Animals found positive for bacteria” value in the test with E. coli expressing CNF1 (MCC950 50 mg/kg IP once a day, control group 0) is listed as 56%. In addition, the “Bacterial load compared to control group” value in the test with E. coli expressing CNF1 (MCC950 50 mg/kg IP) is on record as “statistically significant higher”.
For `CCS(=O)(=O)c1cc(Nc2ncc(F)c(N(C)c3cc(CO)c(C)cc3C)n2)ccc1N1C[C@@H]2C[C@H]1CN2C` [AZ13711265], in test [1], the “Total PASI score (cumulative score of scaling and erythema)” value stood at 3.1; the “Erythema score (PASI)” value was found to be 1.4; the “Scaling score (PASI)” value came to 1.7.
For the molecule `CCn1c(=O)c(-c2ccc(-c3cncs3)cc2Cl)cc2cnc(Nc3ccc(N4CCN(C)CC4)cc3)nc21` [FRAX597], the “Block of IL-1β maturation in macrophages treated with LPS and CNF1” value in the test on IL-1β maturation was “sufficient to block”. Moreover, the “Block of CNF1-triggered Caspase-1 activity/activation measured using FAM-FLICA” value in the test with Caspase-1 activation is “sufficient to block”.
For `CO[C@@H]1C[C@@H](C[C@H]2CC[C@H](C)[C@H]([C@@H](C)C(=O)O)O2)O[C@]2(O[C@](C)([C@H]3CC[C@@](C)([C@@H]4O[C@@H]([C@H]5O[C@@](O)(CO)[C@H](C)C[C@@H]5C)C[C@@H]4C)O3)C[C@H]2C)[C@@H]1C` [Nigericin], the “FAM-FLICA positive cells (mean)” value with Caspase-1 activation (WT BMDMs (FIG. 1b), control condition 2.5%) is reported as 15.4%.
In the case of `Oc1ccc2ccccc2c1SSc1c(O)ccc2ccccc12` [IPA-3], the “Block of IL-1β maturation in macrophages treated with LPS and CNF1” value in the test on IL-1β maturation is listed as “sufficient to block”. In addition, in the test with Caspase-1 activation, the “Block of CNF1-triggered Caspase-1 activity/activation measured using FAM-FLICA” value is reported as “sufficient to block”.
